Data: article PMC12530850, “Synthesis, antidiabetic evaluation, and computational modeling of 3-acetyl-8-ethoxy coumarin derived hydrazones and thiosemicarbazones” (RSC Advances, 2025)
“And” between values parts separate entries of the source, which are not always exact repeats. Identical values can stand only once.

Assays:
[1] = molecular target: α-amylase; assay: α-amylase inhibition assay (starch substrate); type: biochemical; details: pH 6.9, 35 °C
Procedure: A 0.4 M starch combination was made in 80 mL of NaOH solution and heated to 80 °C for 30 minutes in order to create the starch. After that, 10 μL of various chemical concentrations were combined with 35 μL of starch solution and 35 μL of phosphate buffer (pH 6.9), and the mixture was incubated for 25 minutes at 35 °C. Finally, the final combination was reincubated for 25 minutes after 20 μL of the α-amylase solution was added. Each tube was filled with 50 μL of HCl (0.1 M) to complete the reactions. At 580 nm, the absorbance was measured. The amount of αamylase needed to release one μmol of reducing sugar, which is estimated to be glucose per minute at pH 6.9 and 40 °C, is known as one α-amylase unit.[52,53]

[2] = Antioxidant assay (metal chelating, Fe^2+ binding at 522 nm); details: Fe^2+ chelating
Procedure: Fe^2+ chelating ability of novel compounds was predicted according to Dinis et al.[54] with slight modification. Fe^2+-binding capacity of novel compounds was spectrophotometrically recorded at 522 nm. This study was conducted based on previous papers.[55,56]
In this section, we studied the metal chelating method, one of the antioxidant methods for toxicity. To stop the metal ions from serving as catalysts of lipid oxidation, metal-chelating antioxidants are thus added to food products. […] In this study, EDTA was used as a standard.

SMILES | IC50 [1] | Metal chelating (IC50) [2]
CCOc1cccc2cc(/C(C)=N/NC(=O)c3cccs3)c(=O)oc12 [Compound 3a, (E)-N′-[1-(8-Ethoxy-2-oxo-2H-chromen-3-yl)ethylidene]thiophene-2-carbohydrazide] | 430 ± 7.6 nM | >100 µg/mL
CCOc1cccc2cc(/C(C)=N/NC(=O)c3ccc(F)cc3)c(=O)oc12 [Compound 3b, (E)-N′-[1-(8-Ethoxy-2-oxo-2H-chromen-3-yl)ethylidene]-4-fluorobenzohydrazide] | 252 nM and 159 nM | >100 µg/mL
CCOc1cccc2cc(/C(C)=N/NC(=O)c3ccc(Br)cc3)c(=O)oc12 [Compound 3c, (E)-4-Bromo-N′-[1-(8-ethoxy-2-oxo-2H-chromen-3-yl)ethylidene]benzohydrazide] | 209 ± 12.4 nM | >100 µg/mL
CCOc1cccc2cc(/C(C)=N/NC(=O)c3ccccc3OC)c(=O)oc12 [Compound 3d, (E)-N′-[1-(8-Ethoxy-2-oxo-2H-chromen-3-yl)ethylidene]-2-methoxybenzohydrazide] | 177 ± 8.25 nM | >100 µg/mL
CCOc1cccc2cc(/C(C)=N/NC(=O)c3cnccn3)c(=O)oc12 [Compound 3e, (E)-N′-[1-(8-Ethoxy-2-oxo-2H-chromen-3-yl)ethylidene]pyrazine-2-carbohydrazide] | 479 ± 8.7 nM | >100 µg/mL
CCOc1cccc2cc(/C(C)=N/NC(=O)c3c[nH]c4ccccc34)c(=O)oc12 [Compound 3f, (E)-N′-[1-(8-Ethoxy-2-oxo-2H-chromen-3-yl)ethylidene]-1H-indole-3-carbohydrazide] | 425 ± 11.1 nM | >100 µg/mL
CCOc1cccc2cc(/C(C)=N/NC(=O)c3ccco3)c(=O)oc12 [Compound 3g, (E)-N′-[1-(8-Ethoxy-2-oxo-2H-chromen-3-yl)ethylidene]furan-2-carbohydrazide] | 189 ± 9.65 nM | >100 µg/mL
COc1cccc2cc(/C(C)=N/NC(=S)NCc3ccccc3)c(=O)oc12 [Compound 5a, (E)-N-Benzyl-2-[1-(8-methoxy-2-oxo-2H-chromen-3-yl)ethylidene]hydrazine-1-carbothioamide] | 264.5 ± 2.64 nM | >100 µg/mL
COc1cccc2cc(/C(C)=N/NC(=S)Nc3ccc(C)cc3C)c(=O)oc12 [Compound 5b, (E)-N-(2,4-Dimethylphenyl)-2-[1-(8-methoxy-2-oxo-2H-chromen-3-yl)ethylidene] hydrazine-1-carbothioamide] | 198 ± 6.04 nM | 58.06 ± 0.08 µg/mL
COc1cccc2cc(/C(C)=N/NC(=S)NCc3ccc(C)cc3)c(=O)oc12 [Compound 5c, (E)-2-[1-(8-Methoxy-2-oxo-2H-chromen-3-yl)ethylidene]-N-(4-methylbenzyl) hydrazine-1-carbothioamide] | 128 ± 2.82 nM | 43.55 ± 0.10 µg/mL
COc1cccc2cc(/C(C)=N/NC(=S)NCC(C)C)c(=O)oc12 [Compound 5d, (E)-N-Isobutyl-2-[1-(8-methoxy-2-oxo-2H-chromen-3-yl)ethylidene]hydrazine-1-carbothioamide] | 237 ± 3.43 nM | 50.38 ± 0.04 µg/mL
COc1cccc2cc(/C(C)=N/NC(N)=S)c(=O)oc12 [Compound 5e, (E)-2-[1-(8-Methoxy-2-oxo-2H-chromen-3-yl)ethylidene]hydrazine-1-carbothioamide] | 146 ± 7.35 nM | 35.96 ± 0.52 µg/mL
O=C(O)CN(CCN(CC(=O)O)CC(=O)O)CC(=O)O [EDTA, Ethylenediaminetetraacetic acid, reference compound] | – | 66.82 ± 0.40 µg/mL
